In US20240293507A1, “Methods for Enhancing Immune Checkpoint Inhibitor Therapy” (The University of Southern California, priority 2021, published 2024):
No end group written: not given here.

How the values were obtained:
[1] = tested on: MC38 mouse colon adenocarcinoma cells; test: MC38 colon adenocarcinoma challenge, survival and rechallenge (FIG. 6-8); type: in vivo, mice; conditions: peptide in combination with anti-PD-1 monoclonal antibody
From the text: Enhancement was also found of the efficacy of anti-PD-1 therapy in a mouse colon cancer model by coadministration of a cyclic peptide as described herein. A typical protocol for identifying or characterizing effective analogs of naturally occurring cyclic peptides or effective naturally occurring cyclic peptides is shown in FIG. 6.
Mice were challenged with MC38 mouse colon adenocarcinoma cells and treated with peptide 1 (SEQ ID NO. 1), peptide 2 (SEQ ID NO. 2), or peptide 3 (SEQ ID NO. 3) alone, peptide 1 (SEQ ID NO. 1), peptide 2 (SEQ ID NO. 2), or peptide 3 (SEQ ID NO. 3) in combination with an anti-PD-1 monoclonal antibody, or with the anti-PD-1 monoclonal antibody alone.
Such combination therapy provided an effect that exceeds the summation of effects provided by anti-PD1 or the cyclic peptide as monotherapies. […] Use of cyclic peptides in combination anti-PD-1 ICI also effectively immunized mice to rechallenge with MC38 colon cancer cells. As shown in the upper panel of FIG. 8, MC38 cells formed tumors in naïve control mice.

[2] = tested on: myeloid-derived suppressor cells (MDSCs) in MC38 colon adenocarcinoma tumors; test: MDSC infiltration into tumor microenvironment, MC38 tumors, FACS; type: in vivo, C57BL/6 mice; conditions: 4 doses cyclic peptide 0.1 mg/kg alone; tumors harvested day 13
Description: C57BL/6 mice were implanted subcutaneously with 5×10^6 MC38 colon adenocarcinoma cells, and subsequently treated with 4 doses of the indicated cyclic peptide (0.1 mg/kg), 4 doses of the indicated a cyclic peptide with 3 doses of an anti-PD-1 monoclonal antibody (1 mg/kg), or saline (control). Tumors were harvested at day 13 and the percent of myeloid-derived suppressor cells (MDSCs) was quantified by FACS.

Substance: peptide 3: cyclic peptide, θ-defensin analog, sequence CICRRRFCLCRRGA (not fully specified (bridges); also: cyclic, kind not given here)
- survival [1]: potentiated the effect of the anti-PD-1 monoclonal antibody
- percentage of MDSCs within the tumor microenvironment [2]: significant activity in reducing the percentage of MDSCs
